The text below walks through data of patent publication US20210113501A1, “METHOD OF ADMINISTERING BETA-HYDROXY-BETA-METHYLBUTYRATE (HMB)” (Metabolic Technologies, Inc., priority 2009, published 2021).

Like-named read-outs stand apart in the source and are kept apart here.

This series in a line: Study 2: plasma HMB and urinary HMB excretion over 24 h. The following applies: Study 2; for AUC plasma HMB: 24 h; for Clearance: Vd assumed 20% of body weight; for AUC greater than for CaHMB capsules: over 24 hours; for tpeak: unit as in Table 5. Type of series: in vivo, human. The source says: Human subjects. In study 1, four male and four female college-aged subjects were studied. In study 2, an additional four male and four female college-aged subjects were studied. The protocols for both studies were approved by the Iowa State University IRB and each subject gave informed consent to participate in the study. Due to the nature of the treatments, neither the subjects nor the researchers could be blinded.
Treatments. The same treatments were given to the subjects in both study groups. The three treatments were given in random order to each subject with at least a one week washout period between treatments. The treatments were supplied by Metabolic Technologies, Inc. (MTI, Ames, Iowa) and were prepared with food grade ingredients. One gram of CaHMB or the equivalent HMB in free acid in a gel form was administered to the subjects. The CaHMB capsules were obtained from a commercial supplement manufacturer (Optimum Nutrition, Aurora, Ill.) while the HMB-acid gel was prepared at MTI laboratories. Briefly, the HMB-acid was adjusted to a pH 4.5 with potassium carbonate (K2CO3) and flavors and sweeteners were then added. The 1.0 g CaHMB capsule was taken with 355 mL of water (approx. 12 oz.). The free acid gel dosage was 0.80 g and was equivalent to the free acid contained in the CaHMB in the capsule. The free acid gel treatments were either swallowed (FASW) or held sublingual for 15 seconds and then swallowed (FASL). FASW consisted of expelling the entire dose into the mouth in a 3 ml syringe, swallowing, and then following this with 355 mL of water. FASL subjects were instructed to place the entire dosage under the tongue and hold the dosage for 15 sec before swallowing. They then rinsed and followed the dose with 355 mL of water.
Study 2 design. Study 2 was conducted similar to study 1 with the following modifications. In study 2, plasma levels of HMB were measured for 1440 min (24 h) and total urine collection was also performed for measurement of urinary HMB excretion during this period. After the 180 min blood sample, the subjects were allowed to leave the laboratory and were instructed to return to the laboratory for additional blood samples at 360, 720, and 1440 min after the ingestion of the supplement. As in study 1, each subject took each of the treatments with at least a one week washout period between treatments. Samples were again stored frozen at −70° C. for analysis of plasma and urinary HMB concentrations. Pre-ingestion, 180 min and 1440 min blood samples were again assayed for the same measurements already for study 1. Subjects were provided with a standardized lunch after the 180 min blood sampling and instructed to eat this at approximately 240 min post ingestion. Following the 720 min blood sample, subjects were instructed to eat a normal evening meal before 10 pm. Subjects reported back to the laboratory the following morning for the fasted 1440 min blood sample. A urine collection container was provided and subjects collected all urine produced during the experimental 24 h experimental period. The urine was stored refrigerated when not being collected. Urine volumes were measured and samples of the total urine collection were taken and stored frozen at −70° C. until analyzed for HMB.
HMB analysis. Plasma and urine HMB were analyzed by gas chromatography/mass spectrometry (GC/MS) as previously described.(27)
Calculations and statistics. Areas under the curves were calculated for each subject using the trapezoidal method that sums the area above baseline.(51) Half-life of plasma HMB was calculated for study 2. The following equations were used:
k=(ln(Cpeak)−ln(Ctrough))/Tinterval
Peak plasma concentrations for each subject were used for Cpeak. […] Tpeak was the time at which Cpeak was measured and Tinterval is the time from Tpeak until the time at Ctrough (720 min). The extracellular fluid compartment was assumed to be 20% of body weight and calculated using equation 3 below(1). […]

With `CC(C)(O)CC(=O)O` [HMB-Acid Gel Sublingual, 3-hydroxy-3-methylbutyric acid], the “24 h Urine HMB” value came out at 1.16 ± 0.17 mmol; the “24 h Urine HMB, % initial dose” value was determined as 17.2 ± 2.5 % initial dose; the “Cpeak (peak plasma HMB concentration)” value came out at 247.6 ± 19.8 nmol/mL; the “AUC plasma HMB” value was 52,886 ± 2,729 nmol/1440 min. The compound further had a Clearance of 66.9 ± 1.6 mL/min and a tpeak of 38.8 ± 2.6 min. In addition, where the note is “listed as FASL”, the “24 h Urine HMB, % initial dose” value came out at 17.2±2.5 % initial dose; the “Cpeak (peak plasma HMB concentration)” value is 247.6 ± 19.8 nmol/mL; the “Half-life of plasma HMB” value came to 2.51 ± 0.14 h; the “time to peak plasma HMB concentration” value was 38.8 ± 2.6 min. Where the note is “listed as FASL”, the “AUC greater than for CaHMB capsules” value was 14.3%.
Regarding `CC(C)(O)CC(=O)O` [HMB-Acid Gel Swallow, 3-hydroxy-3-methylbutyric acid], the “24 h Urine HMB” value turned out to be 1.21 ± 0.19 mmol; the “24 h Urine HMB, % initial dose” value is given as 17.8 ± 2.9 % initial dose; the “Cpeak (peak plasma HMB concentration)” value stood at 238.6 ± 16.0 nmol/mL; the “AUC plasma HMB” value was 53,395 ± 2,862 nmol/1440 min. Further, the tpeak was found to be 41.9 ± 5.8 min. Also, where the note is “listed as FASW”, the “24 h Urine HMB, % initial dose” value came to 17.8±2.9 % initial dose; the “Cpeak (peak plasma HMB concentration)” value came to 238.6 ± 16.0 nmol/mL; the “time to peak plasma HMB concentration” value stood at 41.9 ± 5.8 min; the “AUC greater than for CaHMB capsules” value was 15.4%. For the same compound, the half-life (both sexes, human, plasma, oral, 0.8 g) was 2.5 ± 0.13 h. Moreover, the Clearance (both sexes, human, plasma, oral, 0.8 g, read-out: Clearance) was 67.3 ± 3.2 mL/min.
Turning to `CC(C)(O)CC(=O)[O-].CC(C)(O)CC(=O)[O-].[Ca+2]` [CaHMB, calcium β-hydroxy-β-methylbutryate, reference compound], the “24 h Urine HMB” value was 1.00 ± 0.13 mmol; the “24 h Urine HMB, % initial dose” value turned out to be 14.7±2.0 % initial dose; the “Cpeak (peak plasma HMB concentration)” value amounted to 131.2 ± 6.0 nmol/mL; the “Half-life of plasma HMB” value worked out at 3.17 ± 0.22 h. Besides, the “time to peak plasma HMB concentration” value was 135.0 ± 17.0 min, the “AUC plasma HMB” value is recorded as 46,281 ± 2,717 nmol/1440 min, the Clearance was found to be 53.9 ± 4.2 mL/min and the tpeak turned out to be 135 ± 17 min. Also, the “plasma HMB level at 360 and 720 min versus free acid gel” value (p<0.05) is given as “slightly higher”.
